The text below walks through data of US12521371B2, “Modulators of alpha-synuclein” (KAINOS MEDICINE INC., priority 2017, dated 2026).

One data set addresses T1, FAF1-Caspase 8 complex (Homo sapiens, UniProt Q9UNN5).
T1 construct: host or cells: cell extracts
T1 sequence (Q9UNN5 1-650): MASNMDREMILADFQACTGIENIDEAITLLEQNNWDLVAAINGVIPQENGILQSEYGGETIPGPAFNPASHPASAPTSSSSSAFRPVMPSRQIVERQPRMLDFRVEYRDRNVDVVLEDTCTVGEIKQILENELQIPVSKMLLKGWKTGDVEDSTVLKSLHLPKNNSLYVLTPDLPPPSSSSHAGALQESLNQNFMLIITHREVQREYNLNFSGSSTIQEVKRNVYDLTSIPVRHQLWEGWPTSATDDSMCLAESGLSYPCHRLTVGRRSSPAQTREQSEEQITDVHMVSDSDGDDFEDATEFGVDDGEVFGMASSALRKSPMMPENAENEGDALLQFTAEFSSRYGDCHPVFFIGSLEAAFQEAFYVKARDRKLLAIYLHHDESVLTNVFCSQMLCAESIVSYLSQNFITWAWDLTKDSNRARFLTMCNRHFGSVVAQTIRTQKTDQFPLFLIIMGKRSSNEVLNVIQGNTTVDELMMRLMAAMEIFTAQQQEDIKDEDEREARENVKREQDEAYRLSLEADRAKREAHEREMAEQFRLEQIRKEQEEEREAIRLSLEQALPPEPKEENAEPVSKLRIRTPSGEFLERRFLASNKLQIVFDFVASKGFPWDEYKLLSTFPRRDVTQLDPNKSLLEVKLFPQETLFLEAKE
In words: Immunoprecipitation assay of FAF1-Caspase 8 complex formation. The class given is biochemical. The source says: (§1) FAF1 activates apoptotic stress by various stimuli through activation of caspase cascade and necrosis as described (Yu C et al. 2016). The direct targets of FAF1 are caspase 8 and JNK in these two pathways, respectively. And the step of this activation is forming these complexes followed by activation of the downstream targets.
(§2) The inhibition of the complex formation of FAF1-Caspase 8 and FAF1-JNK by KM-819 is confirmed by the usual immunoprecipitation assays using a caspase8 DED antibody and a JNK antibody, and bound and precipitated FAF1 are measured by Western blot using anti-FAF1 antibody. Clearly, KM-819 inhibits the complex formation effectively, about 80% inhibition at 0.1 uM (FIG. 8).

Another data set deals with T2, FAF1-JNK complex (Homo sapiens, UniProt Q9UNN5).
T2 construct: host or cells: cell extracts
T2 sequence (Q9UNN5 1-650): T1 sequence (Q9UNN5 1-650)
Put plainly: Immunoprecipitation assay of FAF1-JNK complex formation. The class given is biochemical.
Description: as §1, §2

In another data set the test system is Caspase 8. Put plainly: Caspase 8 activation measured as Caspase 3 cleavage, Western blot. The class given is cell-based. The conditions noted are these: cleavage of Caspase 3. On the procedure: (§3) The inhibition of activation of Caspase 8 and JNK by KM-819 is confirmed by assaying the cleavage of the Caspase 8 substrate, Caspase 3, and autophosphorylation of JNK, respectively (FIG. 9). The cells are treated with different concentration of KM-819 as indicated and the levels of cleaved Caspase 3 and autophosphorylated form of JNK are measured by Western blot using anti-Caspase 3 antibody and anti-phospho-JNK antibody, respectively. Clearly, KM-819 inhibits the activity of Caspase 8 and JNK activation (FIG. 9).
(In general: A western blot detects proteins with antibodies after separation by electrophoresis.)

The test system of another data set is JNK. Put plainly: JNK activation measured as JNK autophosphorylation, Western blot. The class given is cell-based. To be noted: autophosphorylation of JNK. On the procedure: as §3
For a further data set, the system named is LC3 and p62. Put plainly: Autophagy promotion: LC3 and p62 levels in SH-SY5Y cells overexpressing FAF1, Western blot. The class given is cell-based. The protocol:
EC50 for autophagy promotion of KM-819 is 1 nM.

In another data set the test system is alpha-synuclein. In words: Alpha-synuclein level in SH-SY5Y cells co-transfected with FAF1-Flag and alpha-synuclein-GFP, Western blot. The class given is cell-based. On the procedure:
To confirm if FAF1 inhibitor decreases the alpha-synuclein level in cells, SH-SY5Y cells are treated with the FAF1 inhibitor KM-819 (KR-88493, U.S. Pat. No. 7,939,550, Yoo S E et al. 2016). Cells are co-transfected with genes encoding FAF1 tagged with Flag and alpha-synuclein tagged with GFP. The alpha-synuclein level is measured by Western blot of cell extracts using anti-GFP antibody. The FAF1 level is measured by Western blot of cell extracts using anti-Flag antibody. Clearly, the level of alpha-synuclein is decreased upon treatment with FAF1 inhibitor (FIG. 11). […] This is much higher efficacy compared to the apoptosis inhibition activity measured in the prior art, 70% inhibition at 10 uM. Note that FAF1 level itself is not changed by treatment with FAF1 inhibitor.

For data set [1], the system named is human alpha-synuclein mutant A53T. Put plainly: Alpha-synuclein level in brain tissues of alpha-synuclein A53T transgenic mice after oral KM-819, Western blot. To be noted: oral 1, 5, 10 mg/kg/day for 9 days, A53T Tg mice. The class given is in vivo.
Data set [2] has as its system deoxy-glucose induced hypoxia-mediated apoptosis. The conditions noted are these: at 10 uM; U.S. Pat. No. 7,939,550; cited from earlier work.
Another data set has as its system FAF1. In words: FAF1 siRNA treatment of SH-SY5Y cells cotransfected with the alpha-synuclein gene, Western blot. The class given is cell-based. The source says: FAF1 expression is attenuated by treating SH-SY5Y cells with siRNA (sequence: GUGUUGUGGCACAAACCAU) and reduction in FAF level is confirmed by Western blot of cell extracts using anti-FAF1 antibody. The cells are cotransfected with the alpha-synuclein gene. The level of alpha-synuclein is monitored by Western blot using anti-alpha-synuclein antibody. Clearly, the level of alpha-synuclein is decreased with FAF1 siRNA treatment (FIG. 5).

One may read the inhibition as the drop in the measured response relative to a control, in per cent. For orientation: IC50 means the concentration that inhibits the measured activity by half. As usually defined, the EC50 is the concentration that produces a half-maximal response. Consider `O=C(CSc1ccc(Br)cc1)Nc1cn(CCc2ccccc2)nc1C(=O)O` [KM-819, 4-[2-(4-bromo-phenylsulfanyl)-acetylamino]-1-phenethyl-1H-pyrazole-3-carboxylic acid], for which the inhibition at 0.1 µM against FAF1-Caspase 8 complex is ~80%. In addition, on FAF1-JNK complex, the inhibition at 0.1 µM was ~80%. In the data set on Caspase 8, this compound gave an IC50 of 730 nM. The compound also had an IC50 in the data set on JNK of 250 nM. In the data set on LC3 and p62, the LC3 level entry is given as “increases” and the p62 protein level entry is “decreases”. For the same compound, the EC50 with LC3 and p62 (Homo sapiens, read-out: EC50 for autophagy promotion (modulating LC-3 and p62 levels)) was 1 nM. The half-maximal effective concentration (EC50) in the data set on alpha-synuclein (Homo sapiens, SH-SY5Y, as stated in description b51, read-out: EC50 for decreasing the amount of alpha-synuclein in cells) is 20 nM. The inhibition at 10 µM in the data set on alpha-synuclein (Homo sapiens, SH-SY5Y, at 10 uM) was > 95%. The IC50 in the data set on alpha-synuclein (Homo sapiens, SH-SY5Y cells, FAF1-Flag and alpha-synuclein-GFP, read-out: IC50 for decrease of alpha-synuclein level) came out at 20 nM. In the data set with alpha-synuclein (SH-SY5Y cells, anti-Flag Western blot), the FAF1 level entry is reported as “not changed”. Also, in data set [1], the “FAF1 level in midbrain” value is “not changed”, the “level of S129 phosphorylated alpha-synuclein in midbrain” value is recorded as “decreased”, the “level of alpha-synuclein in cerebellum” value is given as “decreased” and the “level of alpha-synuclein in cortex” value is “decreased”. Moreover, in data set [1], the “level of alpha-synuclein in hippocampus” value was “decreased”, the “level of alpha-synuclein in midbrain” value was “decreased” and the “level of alpha-synuclein in striatum” value is recorded as “decreased”. Also, the inhibition of apoptosis in [2] is recorded as 70%.

Regarding “FAF1 siRNA: siRNA (sequence: GUGUUGUGGCACAAACCAU) that attenuates FAF1 expression in SH-SY5Y cells (chemistry not given here)”, the level of alpha-synuclein entry in the data set with FAF1 (SH-SY5Y cells cotransfected with alpha-synuclein gene) was “decreased”. Further, the FAF1 expression result in the data set with FAF1 (SH-SY5Y cells, anti-FAF1 Western blot) was “attenuated”.
